# Counter-ions that a name gives are not always drawn.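 Protocol summary: plate cells (96-well), add compound at 5 concentrations, incubate 48 h, interpolate endpoints linearly. GI50: concentration for 50% inhibition of growth.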 Calls of active or inactive are those of the source. Cut-off read from the data, not from the text of the source: active = GI50 up to about 1.1 µM and inactive = higher.
# Key:
# Assay in all cases: NCI tumour cell line growth inhibition, 48 h
# MDA-MB-231 = system: MDA-MB-231
# RPMI-8226 = system: RPMI-8226
# SR = system: SR
# NCI-H226 = system: NCI-H226
# UO-31 = system: UO-31
# K562 = system: K562
# M14 = system: M14
# T47D = system: T47D
# HOP-62 = system: HOP-62
# HCT-15 = system: HCT-15
# IGROV-1 = system: IGROV-1
# NCI-H23 = system: NCI-H23
# SNB-75 = system: SNB-75
# 786-0 = system: 786-0
# MCF7 = system: MCF7
# A498 = system: A498
# SK-OV-3 = system: SK-OV-3
# NCI-H522 = system: NCI-H522
# DU-145 = system: DU-145
# HOP-92 = system: HOP-92
# OVCAR-4 = system: OVCAR-4
# NCI/ADR-RES = system: NCI/ADR-RES
# RXF 393 = system: RXF 393
# Malme-3M = system: Malme-3M
# Hs-578T = system: Hs-578T
# EKVX = system: EKVX
# HL-60 = system: HL-60
# OVCAR-5 = system: OVCAR-5
# OVCAR-8 = system: OVCAR-8
# BT-549 = system: BT-549
# UACC-257 = system: UACC-257
# ACHN = system: ACHN
# U-251 = system: U-251
# UACC-62 = system: UACC-62
# HCT-116 = system: HCT-116
# A549 = system: A549
# MDA-MB-435 = system: MDA-MB-435
# OVCAR-3 = system: OVCAR-3
# SNB-19 = system: SNB-19
# COLO 205 = system: COLO 205
# HT-29 = system: HT-29
# NCI-H460 = system: NCI-H460
# CAKI-1 = system: CAKI-1
# HCC 2998 = system: HCC 2998
# SF-268 = system: SF-268
# LOX IMVI = system: LOX IMVI
# SK-MEL-2 = system: SK-MEL-2
# SW-620 = system: SW-620
# MDA-N = system: MDA-N
# TK-10 = system: TK-10
# MOLT-4 = system: MOLT-4
# CCRF-CEM = system: CCRF-CEM
# SF-295 = system: SF-295
# SN12C = system: SN12C
# SF-539 = system: SF-539
# KM12 = system: KM12
# SK-MEL-5 = system: SK-MEL-5
# SK-MEL-28 = system: SK-MEL-28
# PC-3 = system: PC-3
# KM-20L2 = system: KM-20L2
# DMS-114 = system: DMS-114
smiles,measurement,setting,value
CCCCNc1nc(SC)nc2[nH]cnc12,GI50,MDA-MB-231,> 81.1 µM (inactive)
same,GI50,RPMI-8226,> 100 µM (inactive)
same,GI50,SR,> 100 µM (inactive)
same,GI50,NCI-H226,> 100 µM (inactive)
same,GI50,UO-31,> 100 µM (inactive)
same,GI50,K562,> 100 µM (inactive)
same,GI50,M14,> 100 µM (inactive)
same,GI50,T47D,> 100 µM (inactive)
same,GI50,HOP-62,> 100 µM (inactive)
same,GI50,HCT-15,> 100 µM
same,GI50,IGROV-1,> 100 µM (inactive)
same,GI50,NCI-H23,> 100 µM (inactive)
same,GI50,SNB-75,76.7 µM (inactive)
same,GI50,786-0,> 100 µM (inactive)
same,GI50,MCF7,> 100 µM (inactive)
same,GI50,A498,5.96 µM (inactive)
same,GI50,SK-OV-3,5.82 µM (inactive)
same,GI50,NCI-H522,> 100 µM (inactive)
same,GI50,DU-145,> 100 µM (inactive)
same,GI50,HOP-92,> 59 µM (inactive)
same,GI50,OVCAR-4,> 100 µM (inactive)
same,GI50,NCI/ADR-RES,> 100 µM (inactive)
same,GI50,RXF 393,> 88.5 µM (inactive)
same,GI50,Malme-3M,> 100 µM (inactive)
same,GI50,Hs-578T,2.36 µM (inactive)
same,GI50,EKVX,> 87.7 µM (inactive)
same,GI50,HL-60,> 100 µM (inactive)
same,GI50,OVCAR-5,> 100 µM (inactive)
same,GI50,OVCAR-8,> 64.4 µM (inactive)
same,GI50,BT-549,> 100 µM (inactive)
same,GI50,UACC-257,> 100 µM (inactive)
same,GI50,ACHN,> 100 µM (inactive)
same,GI50,U-251,> 100 µM (inactive)
same,GI50,UACC-62,> 100 µM (inactive)
same,GI50,HCT-116,> 100 µM (inactive)
same,GI50,A549,> 100 µM (inactive)
same,GI50,MDA-MB-435,> 100 µM (inactive)
same,GI50,OVCAR-3,> 100 µM (inactive)
same,GI50,SNB-19,> 74 µM (inactive)
same,GI50,COLO 205,> 100 µM (inactive)
same,GI50,HT-29,> 100 µM (inactive)
same,GI50,NCI-H460,> 100 µM (inactive)
same,GI50,CAKI-1,> 100 µM (inactive)
same,GI50,HCC 2998,> 100 µM (inactive)
same,GI50,SF-268,98.4 µM (inactive)
same,GI50,LOX IMVI,> 100 µM (inactive)
same,GI50,SK-MEL-2,> 100 µM (inactive)
same,GI50,SW-620,> 100 µM (inactive)
same,GI50,MDA-N,> 100 µM (inactive)
same,GI50,TK-10,> 100 µM (inactive)
same,GI50,MOLT-4,> 100 µM (inactive)
same,GI50,CCRF-CEM,> 100 µM (inactive)
same,GI50,SF-295,> 100 µM (inactive)
same,GI50,SN12C,> 100 µM (inactive)
same,GI50,SF-539,> 100 µM (inactive)
same,GI50,KM12,> 100 µM (inactive)
same,GI50,SK-MEL-5,> 100 µM (inactive)
same,GI50,SK-MEL-28,> 100 µM (inactive)
same,GI50,PC-3,> 100 µM (inactive)
Cc1ccc(NC(c2ccccc2)c2ccc3cccnc3c2O)cc1 (centres undefined),GI50,MDA-MB-231,4.55 µM (inactive)
same,GI50,RPMI-8226,2.61 µM (inactive)
same,GI50,SR,2.44 µM (inactive)
same,GI50,NCI-H226,2.7 µM (inactive)
same,GI50,UO-31,3.33 µM (inactive)
same,GI50,K562,3.02 µM (inactive)
same,GI50,M14,4.69 µM (inactive)
same,GI50,T47D,7.23 µM (inactive)
same,GI50,HOP-62,4.97 µM (inactive)
same,GI50,HCT-15,2.64 µM
same,GI50,IGROV-1,4.09 µM (inactive)
same,GI50,NCI-H23,5.79 µM (inactive)
same,GI50,SNB-75,6.37 µM (inactive)
same,GI50,786-0,3.61 µM (inactive)
same,GI50,MCF7,3.14 µM (inactive)
same,GI50,A498,12.2 µM (inactive)
same,GI50,SK-OV-3,7.91 µM (inactive)
same,GI50,NCI-H522,2.17 µM (inactive)
same,GI50,DU-145,11.1 µM (inactive)
same,GI50,HOP-92,3.48 µM (inactive)
same,GI50,OVCAR-4,3.85 µM (inactive)
same,GI50,NCI/ADR-RES,2.79 µM (inactive)
same,GI50,RXF 393,4.4 µM (inactive)
same,GI50,Malme-3M,3.05 µM (inactive)
same,GI50,Hs-578T,9.02 µM (inactive)
same,GI50,EKVX,3.47 µM (inactive)
same,GI50,HL-60,2.04 µM (inactive)
same,GI50,OVCAR-5,7.11 µM (inactive)
same,GI50,OVCAR-8,2.64 µM (inactive)
same,GI50,BT-549,4.33 µM (inactive)
same,GI50,UACC-257,9.79 µM (inactive)
same,GI50,ACHN,3.67 µM (inactive)
same,GI50,U-251,2.82 µM (inactive)
same,GI50,UACC-62,3.84 µM (inactive)
same,GI50,HCT-116,3.23 µM (inactive)
same,GI50,A549,5.56 µM (inactive)
same,GI50,MDA-MB-435,5.87 µM (inactive)
same,GI50,OVCAR-3,2.59 µM (inactive)
same,GI50,SNB-19,6.37 µM (inactive)
same,GI50,COLO 205,4.68 µM (inactive)
same,GI50,HT-29,2.9 µM (inactive)
same,GI50,NCI-H460,2.58 µM (inactive)
same,GI50,CAKI-1,5.11 µM (inactive)
same,GI50,HCC 2998,16.4 µM (inactive)
same,GI50,SF-268,2.24 µM (inactive)
same,GI50,LOX IMVI,3.6 µM (inactive)
same,GI50,SK-MEL-2,7.5 µM (inactive)
same,GI50,SW-620,6.34 µM (inactive)
same,GI50,MDA-N,4.1 µM (inactive)
same,GI50,TK-10,5.22 µM (inactive)
same,GI50,MOLT-4,2.37 µM (inactive)
same,GI50,CCRF-CEM,0.787 µM (active)
same,GI50,SF-295,3.72 µM (inactive)
same,GI50,SN12C,4.63 µM (inactive)
same,GI50,SF-539,2.33 µM (inactive)
same,GI50,KM12,5.02 µM (inactive)
same,GI50,SK-MEL-5,3.97 µM (inactive)
same,GI50,SK-MEL-28,9.29 µM (inactive)
same,GI50,PC-3,3.66 µM (inactive)
COc1ccc2c(=O)c(C)c(-c3ccccc3)oc2c1CN(C)C [DIMEFLINE HYDROCHLORIDE],GI50,SR,84.5 µM (inactive)
same,GI50,UO-31,85.7 µM (inactive)
same,GI50,K562,57.1 µM (inactive)
same,GI50,HCT-15,> 100 µM
same,GI50,A498,56.4 µM (inactive)
same,GI50,RXF 393,76 µM (inactive)
same,GI50,EKVX,> 100 µM (inactive)
same,GI50,OVCAR-5,47.1 µM (inactive)
same,GI50,UACC-257,> 100 µM (inactive)
same,GI50,U-251,> 100 µM (inactive)
same,GI50,OVCAR-3,> 100 µM (inactive)
same,GI50,KM-20L2,58.2 µM (inactive)
same,GI50,NCI-H460,82.8 µM (inactive)
same,GI50,SF-268,> 100 µM (inactive)
same,GI50,DMS-114,> 100 µM (inactive)
same,GI50,LOX IMVI,69.3 µM (inactive)
same,GI50,SW-620,> 100 µM (inactive)
same,GI50,TK-10,99.8 µM (inactive)
same,GI50,SN12C,> 100 µM (inactive)
same,GI50,SK-MEL-5,55 µM (inactive)
same,GI50,SK-MEL-28,> 100 µM (inactive)
